# Read-outs that look alike come from different tables or passages of the source.
# Key:
# PI3K α = molecular target: T1, PI3K α (Homo sapiens, UniProt P42336); assay: Enzyme activity test in vitro (ADP-Glo lipid kinase), PI3K α; assay type: biochemical; settings: ATP 40 μM, 120 min
# T1 construct: purchased Millipore 14-602-K
# Protocol: (§1) The lipid kinase reaction was carried out under the conditions of the appropriate substrate and ATP. Then the kinase activity was tested with the ADP-Glo™ kit in two steps. Step 1: The kinase reaction was terminated, in which residual ATP was completely removed, and only ADP was remained; Step 2: Kinase test reagent was added to convert ADP into ATP, accompanied by luciferin/luciferase reaction. Finally, the […] numerical output value was converted into kinase activity.
# (§2) b) Kit: ADP-Glo™ Lipid Kinase and PIP2: 3PS Kit (Promega #V1792)
# (§3) b) Final test system conditions: 1× reaction system: 50 mM HEPES, 50 mM NaCl, 3 mM MgCl2, 0.01% BSA (freshly prepared on the day of the experiment), 1% DMSO (v/v) +/−compound
# (§4) c) Reaction system: 3 μL mixture of enzyme and substrate (1:1)+2 μL ATP/MgCl2 mixture +5 μL ADP-Glo reagent+10 μL assay reagent.
# (§5) a) Compound dilution: 50 nL of 100× compound/DMSO was transferred to the test well plate with Echo
# For PI3K α, the compounds were diluted three-fold from the highest concentration of 0.111 mM for a total of 10 concentrations.
# (§6) (1) The compound to be tested was prepared. 50 nL of […] compound solution or DMSO was added to the corresponding well plate. […]
# (§7) (16) Fluorescence values were measured on an Envision instrument.
# [1] = In vivo plasma/brain tissue distribution study in male SD rats; settings: oral 10 mpk
# Source text: Experimental purpose: Male SD rats were used as test animals to determine plasma concentrations of compounds and drug concentrations of brain tissue and cerebrospinal fluid after a single administration, and to evaluate the brain entry of the compound of the present disclosure.
# Experimental operation: 12 healthy adult male SD rats were selected. The compound to be tested was mixed with an appropriate amount of solvent (DMSO/solvent/water (10:10:80 v/v/v)) for the oral administration group. The mixture was vortexed and sonicated to prepare a 1.0 mg/mL clear solution for further use. After oral administration of 10 mg/kg to rats, whole blood, brain tissue, and cerebrospinal fluid for a certain period of time were collected to prepare plasma, brain homogenate, and cerebrospinal fluid. The drug concentration was analyzed by LC-MS/MS method, and the pharmacokinetic parameters were calculated by Phoenix WinNonlin software (Pharsight, USA).
# PI3K δ = molecular target: T2, PI3K δ (Homo sapiens, UniProt O00329); assay: Enzyme activity test in vitro (ADP-Glo lipid kinase), PI3K δ; assay type: biochemical; settings: ATP 40 μM, 120 min
# T2 construct: purchased Millipore 14-604-K
# Protocol: as §1, §2, §3, §4, §5
# (§8) For PI3K β/PI3K δ/PI3K γ, the compounds were diluted three-fold from the highest concentration of 1.11 mM for a total of 10 concentrations.
# as §6, §7
# PI3K γ = molecular target: T3, PI3K γ (Homo sapiens, UniProt P48736); assay: Enzyme activity test in vitro (ADP-Glo lipid kinase), PI3K γ; assay type: biochemical; settings: ATP 25 μM, 120 min
# T3 construct: purchased Millipore 14-558-K
# Protocol: as §1, §2, §3, §4, §5, §8, §6, §7
# [2] = In vivo DMPK study in male CD-1 mice
# Source text: Experimental purpose: Male CD-1 mice were used as test animals to determine plasma concentrations of compounds after a single administration and evaluate pharmacokinetic behavior.
# Experimental operation: 8 healthy adult male CD-1 mice were selected, 4 for the intravenous injection group and 4 for the oral administration group. The compound to be tested was mixed with an appropriate amount of the solvent (DMSO/solvent/water (10:10:80 v/v/v)) for the intravenous injection group. The mixture solution was vortexed and sonicated to prepare a 1.0 mg/mL clear solution, which was filtered through a microporous membrane for further use. For the oral administration group, the solvent was DMSO/solvent/water (10:10:80 v/v/v). After the compound to be tested was mixed with the solvent, the mixture solution was vortexed and sonicated to prepare a 1.0 mg/mL homogeneous suspension for further use. After 1 mg/kg intravenous administration or 3 mg/kg oral administration in mice, whole blood was collected for a certain period of time to prepare plasma, and the drug concentration was analyzed by LC-MS/MS method, then the pharmacokinetic parameters were calculated using Phoenix WinNonlin software (Pharsight, USA).
# MDR1 = assay: MDCK-MDR1 permeability test; assay type: in vitro ADME; settings: dog, pH 7.4, 2.5 hours
# Protocol: Compounds in DMSO stock solution were diluted to 2 μM (DMSO<1%) with a transport buffer (HBSS with 10 mM Hepes, pH 7.4) and applied to the apical side or the basolateral side of the cell monolayer. Permeation of compounds from the A to B direction or from the B to A direction was determined in duplicate. The plate was incubated for 2.5 hours in a CO2 incubator at a temperature of 37+1° C. in a saturated humidity containing 5% CO2 without shaking. In addition, the efflux rate of each compound was also determined. Compounds were quantified by LC-MS/MS analysis based on the peak area ratio of analyte/IS.
# After the transport assay, cell monolayer integrity was determined using the fluorescein exclusion test. The buffer was removed from the apical and basolateral chambers. Then 75 μL of 100 μM fluorescein transport buffer and 250 μL of transport buffer were added to the apical and basolateral chambers, respectively. The plate was incubated at 37° C., 5% CO2 and saturated humidity for 30 min without shaking. After 30 min of incubation, 20 μL of fluorescein sample was collected from the apical side, and 60 μL of transport buffer was added. An 80 μL of fluorescein sample was then collected from the basolateral side. Relative fluorescence units (RFU) of fluorescein were measured at 425/528 nm (excitation/emission) with an Envision microplate reader.
# [3] = tested on: HCC1954 cells with PIK3CA mutation; assay: Cell activity test in vitro, anti-proliferation by CTG method, HCC1954; assay type: cell-based; settings: 72 hours
# Protocol: By CTG method, the effect of the compound to be tested on the anti-proliferation activity of cells was determined in two cell lines, HCC1954 and HDQ-P1.
# (1) HCC1954 and HDQ-P1 cells (ATCC® HTB-22™) were inoculated into 96-well plates, respectively, with 100 μL of cell complete medium per well (4000 cells/HDQ-P1 per well, 3500 cells/HCC1954 per well). Cells were cultured at 37° C., 5% CO2 for 24 hours.
# (2) The cell complete medium was replaced by 100 μL of serum-free medium. The cells were starved overnight.
# (3) Compounds were prepared (the starting concentration of the compound was 10 μM, and diluted 3-fold for 8 concentrations. Each concentration of the compound was then diluted 100-fold with serum-free medium), and 25 μL of the diluted compound was added to the plate containing the cells.
# (4) The well plate was incubated at 37° C., 5% CO2 for 72 hours (HCC1954) or 120 hours (HDQ-P1).
# (5) Subsequent operations were performed according to the instructions of the Promega CTG kit.
# [4] = Rat plasma-protein binding; assay type: in vitro ADME
# PI3K β = molecular target: T4, PI3K β (Homo sapiens, UniProt P42338); assay: Enzyme activity test in vitro (ADP-Glo lipid kinase), PI3K β; assay type: biochemical; settings: ATP 40 μM, 120 min
# T4 construct: purchased Promega V1751
# Protocol: as §1, §2, §3, §4, §5, §8, §6, §7
# T2 sequence (O00329 whole entry): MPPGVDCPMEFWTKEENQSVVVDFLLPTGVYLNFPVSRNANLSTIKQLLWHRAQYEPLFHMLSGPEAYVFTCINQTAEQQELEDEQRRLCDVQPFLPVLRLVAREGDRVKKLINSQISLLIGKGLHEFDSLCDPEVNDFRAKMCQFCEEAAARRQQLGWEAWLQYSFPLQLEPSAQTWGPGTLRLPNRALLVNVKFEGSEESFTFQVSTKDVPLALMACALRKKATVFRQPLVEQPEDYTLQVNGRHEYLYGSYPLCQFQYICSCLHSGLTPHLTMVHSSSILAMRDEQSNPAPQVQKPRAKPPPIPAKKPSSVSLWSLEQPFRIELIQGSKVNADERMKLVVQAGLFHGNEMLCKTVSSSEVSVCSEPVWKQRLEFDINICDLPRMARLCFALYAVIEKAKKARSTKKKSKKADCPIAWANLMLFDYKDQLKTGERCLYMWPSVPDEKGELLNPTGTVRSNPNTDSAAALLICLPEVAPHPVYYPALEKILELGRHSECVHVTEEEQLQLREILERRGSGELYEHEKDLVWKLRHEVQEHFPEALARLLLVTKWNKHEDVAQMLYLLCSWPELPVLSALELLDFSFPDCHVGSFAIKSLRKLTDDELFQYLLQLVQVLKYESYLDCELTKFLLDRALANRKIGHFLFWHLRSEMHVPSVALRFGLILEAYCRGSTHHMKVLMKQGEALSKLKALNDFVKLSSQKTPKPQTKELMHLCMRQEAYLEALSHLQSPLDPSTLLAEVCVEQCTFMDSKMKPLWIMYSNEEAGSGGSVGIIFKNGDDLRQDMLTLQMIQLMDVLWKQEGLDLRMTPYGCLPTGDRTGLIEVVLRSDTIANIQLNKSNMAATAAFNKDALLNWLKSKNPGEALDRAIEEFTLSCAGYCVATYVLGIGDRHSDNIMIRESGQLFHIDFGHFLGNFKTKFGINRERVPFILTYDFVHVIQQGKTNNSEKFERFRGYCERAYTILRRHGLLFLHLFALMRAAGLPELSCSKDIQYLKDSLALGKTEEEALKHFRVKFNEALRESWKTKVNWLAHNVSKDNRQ
# T2 sequence (P27986 whole entry partner): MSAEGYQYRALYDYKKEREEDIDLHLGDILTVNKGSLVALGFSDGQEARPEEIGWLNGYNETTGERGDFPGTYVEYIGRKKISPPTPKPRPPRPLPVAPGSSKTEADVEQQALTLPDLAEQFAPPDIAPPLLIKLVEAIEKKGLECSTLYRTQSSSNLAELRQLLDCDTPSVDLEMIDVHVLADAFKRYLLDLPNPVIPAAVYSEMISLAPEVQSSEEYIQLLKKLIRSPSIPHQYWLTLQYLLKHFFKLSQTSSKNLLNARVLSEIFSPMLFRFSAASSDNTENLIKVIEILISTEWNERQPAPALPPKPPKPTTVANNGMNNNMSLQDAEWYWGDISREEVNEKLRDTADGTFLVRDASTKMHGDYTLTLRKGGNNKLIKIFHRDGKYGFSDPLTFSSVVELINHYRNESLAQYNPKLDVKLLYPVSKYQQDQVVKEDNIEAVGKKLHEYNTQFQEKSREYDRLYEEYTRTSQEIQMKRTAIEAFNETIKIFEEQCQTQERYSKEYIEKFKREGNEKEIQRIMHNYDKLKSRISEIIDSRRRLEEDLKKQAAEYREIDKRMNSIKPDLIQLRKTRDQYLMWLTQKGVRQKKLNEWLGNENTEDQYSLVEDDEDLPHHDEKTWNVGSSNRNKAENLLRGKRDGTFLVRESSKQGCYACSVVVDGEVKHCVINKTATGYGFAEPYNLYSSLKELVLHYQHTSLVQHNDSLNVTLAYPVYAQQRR
# T3 sequence (P48736 whole entry): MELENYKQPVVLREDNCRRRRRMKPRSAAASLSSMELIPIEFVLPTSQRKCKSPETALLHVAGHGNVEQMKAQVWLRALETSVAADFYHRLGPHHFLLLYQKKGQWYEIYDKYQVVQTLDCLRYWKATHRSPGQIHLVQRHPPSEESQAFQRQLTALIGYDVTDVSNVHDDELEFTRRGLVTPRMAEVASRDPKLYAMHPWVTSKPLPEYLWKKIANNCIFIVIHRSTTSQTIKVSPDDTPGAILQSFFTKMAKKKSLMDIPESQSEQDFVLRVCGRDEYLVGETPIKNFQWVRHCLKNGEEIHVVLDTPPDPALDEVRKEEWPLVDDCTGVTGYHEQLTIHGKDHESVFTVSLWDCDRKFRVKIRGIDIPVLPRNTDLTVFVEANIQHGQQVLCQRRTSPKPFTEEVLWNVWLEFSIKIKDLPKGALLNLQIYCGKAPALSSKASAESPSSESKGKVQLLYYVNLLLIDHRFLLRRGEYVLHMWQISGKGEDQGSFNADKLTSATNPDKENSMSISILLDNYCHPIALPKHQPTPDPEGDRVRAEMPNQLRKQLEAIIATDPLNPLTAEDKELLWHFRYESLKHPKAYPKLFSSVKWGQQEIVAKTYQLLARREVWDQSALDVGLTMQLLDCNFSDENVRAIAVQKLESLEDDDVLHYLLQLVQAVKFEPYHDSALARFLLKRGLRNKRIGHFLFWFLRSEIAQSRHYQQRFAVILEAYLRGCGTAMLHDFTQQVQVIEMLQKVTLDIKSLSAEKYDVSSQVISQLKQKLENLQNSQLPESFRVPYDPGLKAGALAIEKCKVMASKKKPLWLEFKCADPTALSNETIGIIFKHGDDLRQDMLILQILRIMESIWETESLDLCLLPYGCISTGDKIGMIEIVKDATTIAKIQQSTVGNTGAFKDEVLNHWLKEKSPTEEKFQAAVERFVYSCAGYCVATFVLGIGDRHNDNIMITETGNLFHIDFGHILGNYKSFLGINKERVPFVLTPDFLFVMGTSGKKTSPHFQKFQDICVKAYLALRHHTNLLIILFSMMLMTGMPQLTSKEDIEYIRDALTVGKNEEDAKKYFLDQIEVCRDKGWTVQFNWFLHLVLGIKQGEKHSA
# T4 sequence (P42338 whole entry): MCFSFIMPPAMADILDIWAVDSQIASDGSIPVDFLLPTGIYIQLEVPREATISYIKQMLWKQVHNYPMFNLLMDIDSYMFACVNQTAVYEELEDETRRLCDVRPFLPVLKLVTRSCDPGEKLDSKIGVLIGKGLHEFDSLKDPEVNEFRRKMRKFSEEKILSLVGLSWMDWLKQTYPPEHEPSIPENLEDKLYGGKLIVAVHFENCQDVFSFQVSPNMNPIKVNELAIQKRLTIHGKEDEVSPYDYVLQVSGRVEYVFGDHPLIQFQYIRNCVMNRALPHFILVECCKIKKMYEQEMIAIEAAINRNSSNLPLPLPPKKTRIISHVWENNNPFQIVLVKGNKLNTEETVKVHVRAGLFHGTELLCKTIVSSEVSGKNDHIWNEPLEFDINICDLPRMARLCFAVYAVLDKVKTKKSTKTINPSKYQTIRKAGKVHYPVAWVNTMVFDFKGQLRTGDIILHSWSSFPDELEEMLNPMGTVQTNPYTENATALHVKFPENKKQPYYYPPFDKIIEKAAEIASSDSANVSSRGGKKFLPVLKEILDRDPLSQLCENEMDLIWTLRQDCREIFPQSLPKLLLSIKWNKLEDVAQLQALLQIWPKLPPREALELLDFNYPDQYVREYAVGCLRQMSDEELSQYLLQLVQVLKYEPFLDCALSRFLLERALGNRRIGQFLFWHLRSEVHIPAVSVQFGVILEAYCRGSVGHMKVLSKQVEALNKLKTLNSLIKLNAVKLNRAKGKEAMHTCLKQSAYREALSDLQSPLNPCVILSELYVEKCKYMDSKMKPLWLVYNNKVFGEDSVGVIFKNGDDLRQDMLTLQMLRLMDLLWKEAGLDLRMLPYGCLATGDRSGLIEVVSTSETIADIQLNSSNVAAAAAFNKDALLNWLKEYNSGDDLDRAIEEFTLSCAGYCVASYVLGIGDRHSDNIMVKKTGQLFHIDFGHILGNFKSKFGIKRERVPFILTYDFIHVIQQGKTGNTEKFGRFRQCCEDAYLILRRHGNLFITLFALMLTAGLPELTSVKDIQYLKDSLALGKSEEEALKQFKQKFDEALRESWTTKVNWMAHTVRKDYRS
# T4 sequence (P27986 whole entry partner): as the sequence (P27986 whole entry partner) above
# T1 sequence (P42336 whole entry): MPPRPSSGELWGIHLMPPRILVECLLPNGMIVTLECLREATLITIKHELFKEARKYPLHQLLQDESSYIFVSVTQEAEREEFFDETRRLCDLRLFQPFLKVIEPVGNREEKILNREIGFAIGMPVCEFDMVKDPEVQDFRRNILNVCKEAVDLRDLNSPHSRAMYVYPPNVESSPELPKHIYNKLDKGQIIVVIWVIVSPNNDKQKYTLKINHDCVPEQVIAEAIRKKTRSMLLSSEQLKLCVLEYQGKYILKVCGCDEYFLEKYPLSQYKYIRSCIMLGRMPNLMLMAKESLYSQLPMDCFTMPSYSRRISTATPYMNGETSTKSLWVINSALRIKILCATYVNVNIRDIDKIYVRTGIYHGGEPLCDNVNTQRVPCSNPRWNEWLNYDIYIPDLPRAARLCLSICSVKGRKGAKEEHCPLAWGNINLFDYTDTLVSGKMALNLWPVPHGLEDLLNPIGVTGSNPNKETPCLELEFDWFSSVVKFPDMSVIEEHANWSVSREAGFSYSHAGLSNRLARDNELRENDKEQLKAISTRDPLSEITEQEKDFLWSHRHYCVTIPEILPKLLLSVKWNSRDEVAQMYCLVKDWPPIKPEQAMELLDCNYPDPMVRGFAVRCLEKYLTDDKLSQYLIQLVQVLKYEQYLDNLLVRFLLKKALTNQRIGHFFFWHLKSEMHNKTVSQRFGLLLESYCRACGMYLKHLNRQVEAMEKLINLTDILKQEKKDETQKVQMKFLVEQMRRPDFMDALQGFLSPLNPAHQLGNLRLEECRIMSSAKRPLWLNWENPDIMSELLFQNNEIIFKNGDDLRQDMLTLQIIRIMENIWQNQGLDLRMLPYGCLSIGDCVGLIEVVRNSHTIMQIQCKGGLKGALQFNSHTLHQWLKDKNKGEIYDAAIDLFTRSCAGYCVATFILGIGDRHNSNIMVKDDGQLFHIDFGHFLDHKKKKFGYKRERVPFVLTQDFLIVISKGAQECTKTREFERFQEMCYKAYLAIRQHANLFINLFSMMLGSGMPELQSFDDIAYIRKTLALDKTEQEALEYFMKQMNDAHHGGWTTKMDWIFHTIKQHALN
# T1 sequence (P27986 whole entry partner): as the sequence (P27986 whole entry partner) above
structure (smiles),measurement,setting,value
C[C@H](Nc1ccc2c(c1)OCCn1cc(N3C(=O)OC[C@H]3C(F)F)nc1-2)C(N)=O [GDC-0077],IC50,PI3K α,0.75 nM
same,Tmax,"[1]; male, SD, rat, 10 mg/kg, brain tissue, read-out: Tmax, Brain tissue",1 h
same,AUC,"[1]; male, SD, rat, 10 mg/kg, cerebrospinal fluid, read-out: AUC, Cerebrospinal fluid",0.128 µM·h
same,Cmax,"[1]; male, SD, rat, 10 mg/kg, cerebrospinal fluid, read-out: Cmax, Cerebrospinal fluid",60.4 nM
same,Tmax,"[1]; male, SD, rat, 10 mg/kg, cerebrospinal fluid, read-out: Tmax, Cerebrospinal fluid",1 h
same,AUC,"[1]; male, SD, rat, 10 mg/kg, plasma, read-out: AUC, Plasma",3.12 µM·h
same,Cmax,"[1]; male, SD, rat, 10 mg/kg, plasma, read-out: Cmax, Plasma",1520 nM
same,half-life,"[1]; male, SD, rat, 10 mg/kg, plasma, read-out: T1/2, Plasma (converted)",1.32 h
same,Tmax,"[1]; male, SD, rat, 10 mg/kg, plasma, read-out: Tmax, Plasma",0.25 h
same,"AUC, Brain tissue",[1]; brain tissue,"ND, 342 nM * h"
same,"Cmax, Brain tissue",[1]; brain tissue,147 nM
same,IC50,PI3K δ,133 nM
same,IC50,PI3K γ,72 nM
same,Oral DNAUC,[2]; 3 mg/kg oral administration,778 nM · h/mpk
same,clearance,"[2]; male, CD-1, mouse, plasma, 1 mg/kg intravenous, read-out: Intravenous injection Cl",26.1 mL/min/kg
same,half-life,"[2]; male, CD-1, mouse, plasma, 1 mg/kg intravenous, read-out: Intravenous injection T1/2 (converted)",1.2 h
same,Vd,"[2]; male, CD-1, mouse, plasma, 1 mg/kg intravenous, read-out: Intravenous injection Vd",1.09 L/kg
same,Cmax,"[2]; male, CD-1, mouse, plasma, 3 mg/kg oral administration",1760 nM
same,bioavailability,"[2]; male, CD-1, mouse, plasma, 3 mg/kg oral vs 1 mg/kg intravenous, read-out: Oral F %",50%
same,"Papp A→B at 2.5 h, 2 μM",MDR1,1.99 ×10⁻⁶ cm/s
same,"Papp B→A at 2.5 h, 2 μM",MDR1,16 ×10⁻⁶ cm/s
same,IC50,[3],101 nM
same,fraction unbound,[4],0.515
same,IC50,PI3K β,852 nM
